The values that follow come from patent US4518611A, “2-Furylbutyrolactone modulation of the immune system in mammals” (priority 1983, dated 1985).

Entries after “also recorded” stand apart in the source; their conditions may differ.

In assay [1] the test system is spleen lymphocytes. The assay is described as follows: In vitro lymphocyte stimulation assay, C57BL/6 spleen lymphocytes. The class given is cell-based, mouse. The method, then: (§1) The purpose of this assay is to challenge lymphocytes in microcultures with one or more polyclonal mitogens at concentrations that will induce mitogenesis within 72 hours of stimulation.
(§2) In the mouse model, spleens are removed from different strains of mice and the spleen cells are teased free and suspended in RPMI-1640 tissue culture medium at a concentration of usually […]. These cells are dispensed at a concentration of 5.0×10^5 cells per microculture well in a 96 well flat bottom 96 well tissue culture plate. All testing of the compounds of this invention or mitogens are done in replicates of 10. The cells are then treated with PHA, Con-A, specific antigens, or buffer only. If in vitro testing is done, varying concentrations of the compounds of this invention or buffer only are added to the cells as well. After treatment with the mitogens and/or compounds of this invention, the cells are incubated for 72 hours. The response of these cells to mitogens and/or the compounds of this invention is assessed using ^14 C-thymidine labeling on the fourth day at a concentration of 0.01 μCi/well. The labeled cells are harvested using a lymphocyte harvestor and placed onto fibrous paper discs. A scintillation cocktail is added to vials containing the discs and the results are obtained using a LKB-liquid scintillation counter (Model 1216/Rackbeta II). The data is expressed as a ratio of the cpm of the mitogen stimulated group to the control (nonmitogen) treated group=lymphocyte stimulation index (LSI).
(§3) The lymphocyte stimulation assay may be performed directly on spleen cells obtained from various strains of mice not treated with the compounds of this invention or on lymphocytes obtained from human […]. […] Alternatively, the mice may be treated in vivo with the compounds of this invention by intraperitoneal multi-dose schedules, followed by sacrifice and harvesting spleen lymphocytes. These cells are then tested for their response to polyclonal mitogens or specific antigens used to immunize the mice. In this system however, no additional compound is added to the in vitro lymphocyte stimulation assay system.
An in vitro lymphocyte stimulation assay is performed directly on normal spleen lymphocytes removed from five normal C57BL/6 mice, using concentrations of Cpd. […] Following three days of incubation the assay is completed.
An in vitro lymphocyte stimulation assay was performed using spleen lymphocytes from normal C57BL/6 mice. The lymphocytes were treated with either 1, 5, 10, 50 or 100 μg/well of Cpd. 1 or buffer.
Cpd. 2 was tested using normal spleen lymphocytes from C57BL/6 mice. A lymphocyte stimulation assay was conducted using either 1, 5, 10, 50, or 100 μg/well […] or just buffer.
Spleen cells from C57BL/6 mice were treated, in vitro, with the crystallizing reagents, succinic acid and succinimide. Since these compounds are spontaneously released from the molecular complex in solution at a molar ratio of 2 moles of Cpds. 1, 2, or 3 per mole of the crystalline reagent, these reagents were treated in the lymphocyte stimulation assay at proper molar concentrations.
The compound of example 3, Cpd. 3, was used to treat C57BL/6 spleen lymphocytes in vitro. The lymphocytes were treated with either 1, 5, 10, 50, or 100 μg/well of Cpd. 3 or just buffer and then a lymphocyte stimulation assay was performed.

Assay [2] has as its system spleen lymphocytes. The assay is described as follows: Lymphocyte stimulation assay after in vivo treatment, C57BL/6 mice. To be noted: 4 days. How it is done: as §1, §2, §3
Two strains of mice, C57BL/6 and BDF1 are treated for seven days with i.p. administration of either 25, 50, 100, 200, or 400 mg/kg of Cpd. 1 or just buffer. This is followed on the eighth day by a lymphocyte stimulation assay.
A comparison is made of the lymphocyte response of C57BL/6 mice treated 4 days with i.p. administration of either 50, 100, 200, 400 or 800 mg/kg of Cpd. 1, 50, 100, 200, 400 or 800 mg/kg of ascorbic acid (AA), or just buffer. This is followed on the fifth day by a lymphocyte stimulation assay.
Two strains of mice, C57BL/6 and BALB/c, are treated 4 days with i.p. administration of either 50, 100, 200, or 400 mg/kg of Cpd. 1, or just buffer. This is followed on the fifth day by a lymphocyte stimulation assay.
C57BL/6 mice were treated with four daily i.p. doses of either 50, 100, 200, or 400 mg/kg of Cpd. 1 or just buffer. On the fifth day a lymphocyte stimulation assay was performed.
Mice of the C57BL/6 strain were tested with i.p. administration of either 100, 200, 400 or 600 mg/kg of Cpd. 1 or just buffer. This was followed by removal of spleens and treatment of lymphocytes therein with mitogens PHA and Con-A.
The compound of Example 2, Cpd. 2, was tested in vivo by using C57BL/6 mice and treating them with […] or just buffer for four consecutive days by the i.p. route. On the fifth day a lymphocyte stimulation assay was performed.

Assay [3] concerns human lymphocytes. The assay is described as follows: In vitro lymphocyte stimulation assay, human lymphocytes. The class given is cell-based. Details: key to Lymphocyte Stimulation Index, PHA / Lymphocyte Stimulation Index, Con-A: LSI = cpm of mitogen-stimulated group / cpm of control group. The method, then: as §1, §2, §3
Lymphocytes isolated from 5 human volunteers are treated in vitro with PHA and Con-A and either 0.1, 1, 10, 50, or 100 μg/well of Cpd. 1, 0.1, 1, 10, 50, or 100 μg/well of AA, or buffer.

Assay [4] relates to L-1210 leukemia cells. The assay is described as follows: Treatment of L-1210 leukemia in BDF1 mice (T/C ratios). As to conditions: 20 mg/kg, seven days. The class given is in vivo, mouse. An excerpt: Mice of the BDF1 strain are given in i.p. inoculation of 10^6 L-1210 leukemia cells on day 0. Twenty-four hours later, groups of 7 mice each are started on a nine day treatment regimen of various doses of the compounds of this invention. The experiment is continued according to the guidelines provided under the National Cancer Institute protocol for screening new anti-cancer agents and T/C ratios (median or mean survival time of treated groups over median or mean survival time of controls) are calculated. A T/C value ≥1.25 (or 125%) is considered significant anticancer activity.
Mice of the BDF1 strain, inoculated with L-1210 leukemia cells, are treated for seven days with either 25, 50, 100, 200 or 400 mg/kg of Cpd. 1 or just buffer. The National Cancer Institute protocol for screening new anti-cancer agents is followed and T/C ratios are calculated.
Mice of the BDF1 strain, inoculated with L-1210 leukemia cells, are treated for seven days with either 100 mg/kg of Cpd. 1, 20 mg/kg of 5-flourouracil (5-FU), a known anti-cancer agent, or just buffer. The National Cancer Institute protocol for screening new anti-cancer agents is followed and T/C ratios are calculated.

With `O=C1CCC(=O)N1` [Succinimide, succinimide, reference compound], in assay [1] (13.92 μg/well), the “Lymphocyte Stimulation Index, Control (no mitogen)” value was found to be 1.4. Further, in assay [1] (in vitro), the “effect on PHA and Con-A mitogenesis (in words)” value is “no significant suppressive or enhancing effect”.
As to `O=C1O[C@H]([C@@H](O)CO)C(O)=C1O` [AA, ascorbic acid, reference compound], the “Lymphocyte Stimulation Index, Con-A” value in assay [2] (50 mg/kg i.p.) is reported as 25.5; in assay [2] (100 mg/kg i.p.) it was 19.8; in assay [2] (200 mg/kg i.p.) it was 21.1; in assay [2] (400 mg/kg i.p.) it was 17.8; in assay [2] (800 mg/kg i.p.), 23.9; in assay [3] (0.1 μg/well), 24.37. Also, the “Lymphocyte Stimulation Index, Con-A” value in assay [3] (1.0 μg/well) was found to be 24.76; in assay [3] (10 μg/well) it was 27.35; in assay [3] (50 μg/well), 23.31; in assay [3] (100 μg/well), 25.18. Further, the “Lymphocyte Stimulation Index, Control (no mitogen)” value is “.56” in assay [2] (50 mg/kg i.p.); 1.8 in assay [2] (100 mg/kg i.p.); 1.3 in assay [2] (200 mg/kg i.p.); 1.3 in assay [2] (400 mg/kg i.p.); “.50” in assay [2] (800 mg/kg i.p.). Besides, the “Lymphocyte Stimulation Index, PHA” value amounted to 17.1 in assay [2] (50 mg/kg i.p.); 17.1 in assay [2] (100 mg/kg i.p.); 10.0 in assay [2] (200 mg/kg i.p.); 14.3 in assay [2] (400 mg/kg i.p.); 12.1 in assay [2] (800 mg/kg i.p.); 38.29 in assay [3] (0.1 μg/well). For the same compound, the “Lymphocyte Stimulation Index, PHA” value is 34.69 in assay [3] (1.0 μg/well), 35.10 in assay [3] (10 μg/well), 35.93 in assay [3] (50 μg/well) and 34.23 in assay [3] (100 μg/well). In addition, the “effect on Con-A response (in words)” value in assay [2] (i.p., Con-A) is “a single stimulation of proliferation did occur at 50 mg/kg”. Also, the “effect on PHA response (in words)” value in assay [2] (i.p., PHA) is “No statistically significant measurable effect”. In addition, the “effect on lymphocyte response (in words)” value in assay [3] (in vitro, PHA and Con-A) is “no significant proliferative or anti-proliferative effect”.
As for `O=C(O)CCC(=O)O` [Succinic Acid, succinic acid, reference compound], in assay [1] (in vitro), the “effect on PHA and Con-A mitogenesis (in words)” value was “a decrease in PHA and Con-A mitogenesis with increased succinic acid dosage”.
As to `CN1C(=O)CCC1=O.Cc1ccc(C2(O)C(=O)OC3C(O)COC32O)o1.Cc1ccc(C2(O)C(=O)OC3C(O)COC32O)o1` (centres unmarked) [Cpd. 3, 2-furylbutyrolactone:N-methylsuccinimide], the “Lymphocyte Stimulation Index, Control (no mitogen)” value in assay [1] (1 μg/well) was “.60”; in assay [1] (5 μg/well), “.64”; in assay [1] (10 μg/well), “.47”; in assay [1] (50 μg/well) it was “.27”; in assay [1] (100 μg/well) it was “.25”. Moreover, the “Lymphocyte Stimulation Index, PHA” value in assay [1] (10 μg/well) came to 24.0. For the same compound, the “effect on Con-A response (in words)” value in assay [1] (in vitro, Con-A) is listed as “The 50 μg/well dose slightly stimulated the response to Con-A; also recorded: the 100 μg/well dose suppressed the response”. For the same compound, the “effect on PHA response (in words)” value in assay [1] (in vitro, PHA) was “The 10 μg/well dose of Cpd. 3 significantly stimulated the response to PHA; also recorded: the 50 and 100 μg/well doses suppressed the response”.
Consider `O=c1[nH]cc(F)c(=O)[nH]1` [5-FU, 5-flourouracil, reference compound], for which, in assay [4], the “Median Survival Time” value came out at 30 and the T/C was found to be 1.50.
